Experiment [1] relates to NCI-H1650. Nature of the experiment: CellTiter-Glo 3D proliferation assay, NCI-H1650 spheroids. It counts as cell-based. As to conditions: Homo sapiens, NCI-H1650, 120 h, 5 days; for Emax: read-out: NCI-H1650 Span (Amax). In short, it runs like this: (§1)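 Both lines grown in RPMI-1640 + 10% FBS. COR-L105 plated flat at 1,000 cells/well overnight; NCI-H1650 grown as spheroids, 3,000 cells/well, 72 h. Compounds at 0.508 nM-10 μM final for 5 days, 37° C. ATP read by CellTiter-Glo (3D version for spheroids); IC50 from variable-slope fit normalized to untreated cells.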

In experiment [2] the test system is COR-L105. Nature of the experiment: CellTiter-Glo proliferation assay, COR-L105. Format: cell-based. Conditions: Homo sapiens, COR-L105, 120 h, COR-L105, 5 days; for Emax: read-out: COR-L105 Span (max). In outline:
as §1

As to `Cc1ncsc1-c1ccc(CNC(=O)[C@@H]2C[C@@H](O)CN2C(=O)[C@@H](NC(=O)CCCCCCC(=O)N2CCN(CC#Cc3ccc(OCCCc4sc(N5CCCc6c5nnc(Nc5nc7ccccc7s5)c6C)nc4C(=O)O)c(F)c3)CC2)C(C)(C)C)cc1` [Example 33, 2-(3-(benzo[d]thiazol-2-ylamino)-4-methyl-6,7-dihydropyrido [2,3-c]pyridazin-8(5H)-yl)-5-(3-(2-fluoro-4-(3-(4-(8-(((S)-1-((2S,4R)-4-hydroxy-2-((4-(4-methylthiazol-5-yl)benzyl)carbamoyl)pyrrolidin-1-yl)-3,3-dimethyl-1-oxobutan-2-yl)amino)-8-oxooctanoyl)piperazin-1-yl)prop-1-yn-1-yl)phenoxy)propyl) thiazole-4-carboxylic acid], the results for the IC50 in experiment [1] and in experiment [2] were 8.06 nM and 93.7 nM, respectively. The Emax in experiment [1] was determined as 89.1%; in experiment [2], 76.4%.

On to `Cc1ncsc1-c1ccc(CNC(=O)[C@@H]2C[C@@H](O)CN2C(=O)[C@@H](NC(=O)CCCCCCCCCCC(=O)N2CCN(CC#Cc3ccc(OCCCc4sc(N5CCCc6c5nnc(Nc5nc7ccccc7s5)c6C)nc4C(=O)O)c(F)c3)CC2)C(C)(C)C)cc1` [Example 48, 2-(3-(benzo[d]thiazol-2-ylamino)-4-methyl-6,7-dihydropyrido [2,3-c]pyridazin-8(5H)-yl)-5-(3-(2-fluoro-4-(3-(4-(12-(((S)-1-((2S,4R)-4-hydroxy-2-((4-(4-methylthiazol-5-yl)benzyl)carbamoyl)pyrrolidin-1-yl)-3,3-dimethyl-1-oxobutan-2-yl)amino)-12-oxododecanoyl)piperazin-1-yl)prop-1-yn-1-yl)phenoxy)propyl)thiazole-4-carboxylic acid], for which, in experiment [1], the IC50 came out at 23.7 nM and the Emax stood at 88.6%. Further, in experiment [2], inhibition was half-maximal at 111 nM (IC50) and the Emax is 94%.

On to `Cc1ncsc1-c1ccc([C@H](C)NC(=O)[C@@H]2C[C@@H](O)CN2C(=O)[C@@H](NC(=O)CCCCCCCCCCC(=O)N2CCN(CCOC34CC5(C)CC(C)(CC(Cn6ncc(-c7ccc(N8CCCc9c8nnc(Nc8nc%10ccccc%10s8)c9C)nc7C(=O)O)c6C)(C5)C3)C4)CC2)C(C)(C)C)cc1` [Example 47, 6-(3-(benzo[d]thiazol-2-ylamino)-4-methyl-6,7-dihydropyrido [2,3-c]pyridazin-8(5H)-yl)-3-(1-(((1r,3s,5R,7S)-3-(2-(4-(12-(((S)-1-((2S,4R)-4-hydroxy-2-(((S)-1-(4-(4-methylthiazol-5-yl)phenyl)ethyl)carbamoyl)pyrrolidin-1-yl)-3,3-dimethyl-1-oxobutan-2-yl)amino)-12-oxododecanoyl)piperazin-1-yl)ethoxy)-5,7-dimethyladamantan-1-yl)methyl)-5-methyl-1H-pyrazol-4-yl)picolinic acid], for which the results for the IC50 in experiment [1] and in experiment [2] were 12.5 nM and 228 nM, respectively. Moreover, the Emax in experiment [1] was 97.1%; in experiment [2], 97.6%.

On to `Cc1ncsc1-c1ccc([C@H](C)NC(=O)[C@@H]2C[C@@H](O)CN2C(=O)[C@@H](NC(=O)CCCC(=O)N2CCN(CC#Cc3ccc(OCCCc4sc(N5CCCc6c5nnc(Nc5nc7ccccc7s5)c6C)nc4C(=O)O)c(F)c3)CC2)C(C)(C)C)cc1` [Example 35, 2-(3-(benzo[d]thiazol-2-ylamino)-4-methyl-6,7-dihydropyrido [2,3-c]pyridazin-8(5H)-yl)-5-(3-(2-fluoro-4-(3-(4-(5-(((S)-1-((2S,4R)-4-hydroxy-2-(((S)-1-(4-(4-methylthiazol-5-yl)phenyl)ethyl)carbamoyl)pyrrolidin-1-yl)-3,3-dimethyl-1-oxobutan-2-yl)amino)-5-oxopentanoyl)piperazin-1-yl)prop-1-yn-1-yl)phenoxy)propyl)thiazole-4-carboxylic acid], for which, in experiment [1], the concentration for half-maximal inhibition (IC50) came to 7.7 nM and the Emax was 88.5%. Also, in experiment [2], the half-inhibitory concentration (IC50) worked out at 90.2 nM and the Emax stood at 87.9%.

Take `Cc1ncsc1-c1ccc([C@H](C)NC(=O)[C@@H]2C[C@@H](O)CN2C(=O)[C@@H](NC(=O)CCCCCCCCCCCN2CCN(CC#Cc3ccc(OCCCc4sc(N5CCCc6c5nnc(Nc5nc7ccccc7s5)c6C)nc4C(=O)O)c(F)c3)CC2)C(C)(C)C)cc1` [Example 51, 2-(3-(benzo[d]thiazol-2-ylamino)-4-methyl-6,7-dihydropyrido [2,3-c]pyridazin-8(5H)-yl)-5-(3-(2-fluoro-4-(3-(4-(12-(((S)-1-((2S,4R)-4-hydroxy-2-(((S)-1-(4-(4-methylthiazol-5-yl)phenyl)ethyl)carbamoyl)pyrrolidin-1-yl)-3,3-dimethyl-1-oxobutan-2-yl)amino)-12-oxododecyl)piperazin-1-yl)prop-1-yn-1-yl)phenoxy)propyl)thiazole-4-carboxylic acid]: the 50% inhibitory concentration (IC50) is 4.23 nM in experiment [1] and 37.6 nM in experiment [2]. The values for the Emax in experiment [1] and in experiment [2] were 90.8% and 72.8%, respectively.

With `Cc1ncsc1-c1ccc([C@H](C)NC(=O)[C@@H]2C[C@@H](O)CN2C(=O)[C@@H](NC(=O)CC23CC4CC(C2)CC(CC(=O)N2CCN(CC#Cc5ccc(OCCCc6sc(N7CCCc8c7nnc(Nc7nc9ccccc9s7)c8C)nc6C(=O)O)c(F)c5)CC2)(C4)C3)C(C)(C)C)cc1` [Example 42, 2-(3-(benzo[d]thiazol-2-ylamino)-4-methyl-6,7-dihydropyrido [2,3-c]pyridazin-8(5H)-yl)-5-(3-(2-fluoro-4-(3-(4-(2-((3S,5R)-3-(2-(((S)-1-((2S,4R)-4-hydroxy-2-(((S)-1-(4-(4-methylthiazol-5-yl)phenyl)ethyl)carbamoyl)pyrrolidin-1-yl)-3,3-dimethyl-1-oxobutan-2-yl)amino)-2-oxoethyl)adamantan-1-yl)acetyl)piperazin-1-yl)prop-1-yn-1-yl)phenoxy)propyl)thiazole-4-carboxylic acid], in experiment [1], it took 3.4 nM to reach half-maximal inhibition (IC50) and the Emax turned out to be 137%. In addition, in experiment [2], inhibition was half-maximal at 290 nM (IC50) and the Emax worked out at 91.8%.

Consider `Cc1ncsc1-c1ccc([C@H](C)NC(=O)[C@@H]2C[C@@H](O)CN2C(=O)[C@@H](NC(=O)CCCCCCCCCCC(=O)N2CCN(CC#Cc3ccc(OCCCc4sc(N5CCCc6c5nnc(Nc5nc7ccccc7s5)c6C)nc4C(=O)O)c(F)c3)CC2)C(C)(C)C)cc1` [Example 46, 2-(3-(benzo[d]thiazol-2-ylamino)-4-methyl-6,7-dihydropyrido [2,3-c]pyridazin-8(5H)-yl)-5-(3-(2-fluoro-4-(3-(4-(12-(((S)-1-((2S,4R)-4-hydroxy-2-(((S)-1-(4-(4-methylthiazol-5-yl)phenyl)ethyl)carbamoyl)pyrrolidin-1-yl)-3,3-dimethyl-1-oxobutan-2-yl)amino)-12-oxododecanoyl)piperazin-1-yl)prop-1-yn-1-yl)phenoxy)propyl)thiazole-4-carboxylic acid], for which, in experiment [1], inhibition was half-maximal at 4.91 nM (IC50) and the Emax was 83.2%. Moreover, in experiment [2], the IC50 came to 163 nM and the Emax was 101%.

These data come from patent US20240376094A2, “SELECTIVE BCL-XL PROTAC COMPOUNDS AND METHODS OF USE” (Les Laboratoires Servier, priority 2021, published 2024).
